Columns and labels:
[1] = tested on: human stromal endometrial cells; assay: Cell chemotaxis assay (modified Boyden chamber); assay type: cell-based; conditions: FIG. 10
Procedure: (§1) Human stromal cell preparation: tissue was gently minced into small pieces (1 to 2 mm^3) and incubated at 37° C. for 1 h with 0.1% type A collagenase. At the end of the incubation, single stromal cells were separated from large dumps of epithelium by a 10 min. period of differential sedimentation at unity gravity. The top 8 ml of medium, containing predominantly stromal cells, were then slowly removed and the cells were collected by centrifugation. The stromal-enriched fraction was washed twice in culture medium and allowed to adhere selectively to tissue culture dishes for 15 min. Thereafter, non-attached epithelial cells still present were removed and a purified stromal preparation was obtained on the surface of the culture dishes.
Endometrial stromal cells migration was evaluated by means of chemotaxis experiments in a 48-well modified Boyden chamber. With the migration assay, we assessed the ability of the cells to migrate toward a chemo-attractant on a two-dimensional substrate (in our case, collagen type IV). […] The cells that had migrated to the lower side of the filter were stained with Diff-Quick stain (VWR Scientific Products, Bridgeport, N.J.), and 5-8 unit fields per filter were counted at 160× magnification using a Zeiss microscope. […]

endometriotic cells = assay: Cell adhesion of endometrial stromal cells from treated animals; assay type: in vivo; conditions: animals treated 100 ug/kg orally once a day for two days; 5 subjects per group; FIG. 9
Procedure: Paired animals were treated wth Compound A (100 ug/kg) orally once a day, for two days. The animals were then sacrificed and uterus horns were removed. Myometrium was removed by scraping with a scalpel blade and remaining endometrial tissue was reduced to small fragments with scissors.
Tissue was minced into small pieces (1 to 2 mm^3) and incubated at 37° C. for 1 h with 0.1% type A collagenase. At the end of the incubation, single stromal cells were separated from large dumps of epithelium by a 10 min. period of differential sedimentation at unity gravity. The top 8 ml of medium, containing predominantly stromal cells, were then slowly removed and the cells were collected by centrifugation. […]
Polystyrene 96-well plates (Costar) were coated with 50 ul/well of 8 mg/ml extracellular matrix (ECM) (Sigma, USA), and left uncovered in a laminar flow hood overnight to allow evaporation. […] The sample fluorescence in each well was measured using a fluorescence microplate reader with filters appropriate for 480 nm excitation and 520 nm emission maxima. Results were expressed as the percentage of total cells assuming that the adhesion of cells in the control was 100%. The percentage of adhesion was determined using the formula: (Abs after being rinsed with PBS/Abs no rinse)×100%. […]

[2] = tested on: Ectopic endometrium stromal cells; assay: Proliferation of endometrial stromal cells in vitro (CyQuant), ectopic; assay type: cell-based; conditions: 1 uM-0.1 nM, 48-96 hours; FIG. 2B; may be dose dependent
Procedure: as §1, with “Tissue” for “Human stromal cell preparation: tissue”, “clumps” for “dumps”, “min.” for “min. Thereafter, non-attached epithelial cells still present were removed and a purified stromal preparation was obtained on the surface of the culture dishes.”
Thereafter, nonattached epithelial cells still present were removed and a purified stromal preparation was obtained on the surface of the culture dishes.
The cells were maintained in DMEM supplemented with 10% Fetal Bovine Serum (SIGMA) and 100 U/ml penicillin, 100 ug/ml streptomycin (GIBCO cat. no. 15140-122).
When the stromal cells were grown to confluence, were washed in PBS and then trypsinized using 1× trypsin/EDTA solution (PromoCell cat. no. C-41002). […] The proliferation was determined with CyQuant Cell Proliferation Assay (Molecular Probe cat. no. C7026). […]
The fluorescence was determined using a fluorescence microplate reader with filters appropriate for ˜480 nm excitation and ˜520 nm emission.

C=C1/C(=C\C=C2/CCC[C@]3(C)C([C@@H](C)C/C=C/C(O)(CC)CC)=CC[C@@H]23)C[C@@H](O)C[C@@H]1F [Compound A, 1-alpha-fluoro-25-hydroxy-16,23E-diene-26,27-bishomo-20-epi-cholecalciferol]
reduction in migration with estrogen stimulation ([1]; 1 uM pretreatment 30 min, then β-Estradiol 24 h): approximately 50% | basal condition of migration ([1]; 1 uM, without estrogen stimulation): No effect | adhesion of endometriotic cells (endometriotic cells): dramatically reduce the adhesion | cell proliferation, Ectopic endometrium [2]: reduction in cell proliferation
